Reference: ChEMBL document CHEMBL5137104, “Novel IRAK4 Inhibitors for Treating Asthma” (ACS Med Chem Lett, 2022)

Target: T1, Interleukin-1 receptor-associated kinase 4 (Homo sapiens, UniProt Q9NWZ3)
T1 sequence (Q9NWZ3 whole entry): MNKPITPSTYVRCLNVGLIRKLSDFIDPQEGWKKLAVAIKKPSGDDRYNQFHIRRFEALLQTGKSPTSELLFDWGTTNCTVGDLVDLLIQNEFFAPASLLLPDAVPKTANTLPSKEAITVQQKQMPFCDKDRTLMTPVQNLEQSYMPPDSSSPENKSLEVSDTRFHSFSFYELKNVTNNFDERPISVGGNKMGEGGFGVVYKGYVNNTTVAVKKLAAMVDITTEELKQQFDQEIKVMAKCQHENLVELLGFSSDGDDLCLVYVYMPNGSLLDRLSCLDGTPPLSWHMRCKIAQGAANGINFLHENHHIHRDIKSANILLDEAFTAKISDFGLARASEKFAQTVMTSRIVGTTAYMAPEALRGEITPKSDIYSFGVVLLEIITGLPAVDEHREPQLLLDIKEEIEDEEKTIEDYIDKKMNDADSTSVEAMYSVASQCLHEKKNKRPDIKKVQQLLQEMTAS
Experiment: Inhibition of recombinant human full-length His-tagged IRAK4 expressed in baculovirus infected insect cells using KKARFSRFAGSSPSQSSMVAR as substrate preincubated for 15 mins followed by substrate addition and measured after 2 hrs by LC-MS/MS analysis

SMILES	IC50
CO[C@H]1C[C@H](Oc2cc3nn(C4CCC5(CC4)CN(C(C)=O)C5)cc3cc2C(=O)Nc2cnc3cccnn23)C1	< 0.03 nM
COc1cc2nn([C@H]3CC[C@@]4(CC3)CC(=O)N(C)C4)cc2cc1C(=O)Nc1cnc2cccnn12	0.2 nM
COc1cc2nn([C@H]3CC[C@H](N(C)C(=O)[C@@H](C)O)CC3)cc2cc1C(=O)Nc1cnc2cccnn12	0.2 nM
